Results: patent publication US12226386B2, “Compositions and methods for treating biofilms” (The Regents of the University of California, priority 2018, dated 2025)

Columns and labels:
[1] = system: Candida and Staphylococcus biofilms; experiment: biofilm assays (sustained inhibition and disruption), bacterial and fungal; assay type: cell-based, Candida albicans; Staphylococcus aureus; conditions: in both assays (sustained inhibition and disruption)
Description: (§1) In vitro biofilm formation was tested using two assays, sustained inhibition and disruption. Both assays assess biofilm formed on polystyrene plates. The first, tests the effects of amino acid solution on a developing biofilm, while the latter tests the effects of the solution on a pre-formed mature biofilm, both compared to media without supplemented amino acids.
(§2) Other amino acids in the blood of animals could combat bacterial and fungal biofilm and therefore may be useful in treating these bacterial and fungal infections that would lie on the external surfaces of infected animals such as humans and could also be used to combat these pathogens on instruments and surfaces that need to be treated. Two types of biofilm assays were performed: a sustained inhibition assay and a disruption assay. The sustained inhibition assay assessed the compound's ability to prevent biofilm development throughout all stages of biofilm formation, while the disruption assay assessed the compound's ability to break up an existing mature biofilm.
(§3) For fungal biofilm assays, all solutions were prepared in RPMI 1640 medium. All bacterial biofilm solutions were prepared in Tryptic Soy Broth (TSB), supplemented with 1% glucose (henceforth referred to as TSB-G). All subsequent procedures were performed in a manner that maintained sterility. A solution of each amino acid to be tested was prepared in weight to volume concentrations ranging from 0.1-5.0%. Amino acids were also tested in combinations. Compound solutions were homogenized with gentle agitation in the dark (4° C., 24 hours) before use.
(§4) Fungal strains were streaked on Yeast Peptone Dextrose (YPD) agar plates and incubated at 30° C. for 48 hours. A single colony from each strain to be tested was inoculated into YPD broth and grown for 12 hours, at 30° C., shaking at 225 rpm. For the fungal biofilm inhibition assay, 1 μl of saturated overnight cell culture was added to either 80 μL of RPMI-1640 or RPMI-1640 supplemented with the amino acid compound solution to be tested, in a 384-well plate. The cells were allowed to adhere to the plate for 90 minutes at 37° C. shaking at 350 rpm. Loosely bound cells were washed once with phosphate buffered saline (PBS) and 80 μl of RPMI-1640, or RPMI-1640 supplemented with the amino acid compound solution was added to the plate. The plate was further incubated for 24 hours at 37° C. shaking at 350 rpm. Media was carefully aspirated and the biofilm was measured by optical density at 600 nm. Twelve replicates were performed for each tested condition and the reported values are normalized to the control (RPMI-1640 media only). For the fungal biofilm disruption assays, 80 μL of RPMI-1640 was added to the plate, along with 1 μL of overnight cell culture. The cells were allowed to adhere to the plate for 90 minutes at 37° C. shaking at 350 rpm. Loosely bound cells were washed once with PBS and 80 μL of RPMI-1640 was added to the plate. The plate was further incubated for 24 hours at 37° C. shaking at 350 rpm. Media was carefully aspirated from the mature biofilm and 80 μL of RPMI-1640, or RPMI-1640 supplemented with the amino acid compound solution to be tested, was gently added to the plate. The plate was further incubated for 24 hours at 37° C. shaking at 350 rpm. Media was carefully aspirated and the biofilm was measured by optical density at 600 nm. Twelve replicates were performed for each tested condition and the reported values are normalized to the control (RPMI-1640 media only).
Bacterial strains were streaked on Blood Agar plates (5% sheep blood in Tryptic Soy Agar) and incubated at 37° C. for 24 hours. A single colony from each strain to be tested was inoculated in a TSB broth and grown for 12 hours, at 37° C. shaking at 225 rpm. For the bacterial biofilm inhibition assays, 1 μL of saturated overnight cell culture was added to either 80 μL of TSB-G, or TSB-G supplemented with the amino acid compound solution to be tested, in a 384-well plate. […]

[2] = system: C. albicans biofilms; experiment: in vitro sustained inhibition biofilm assay, fungal; assay type: cell-based, Candida albicans; conditions: 1% amino acid, p<0.001
Description: (§5) Two types of biofilm assays were performed: a sustained inhibition assay and a disruption assay.
as §3
as §4, with “The cells were allowed to adhere to the plate for 90 minutes at 37° C. shaking at 350 rpm. Loosely bound cells were washed once with phosphate buffered saline (PBS) and 80 μl of RPMI-1640, or RPMI-1640 supplemented with the amino acid compound solution was added to the plate. The plate was further incubated for 24 hours at 37° C. shaking at 350 rpm.” left out, “The cells were allowed to adhere to the plate for 90 minutes at 37° C. shaking at 350 rpm.” left out, “The plate was further incubated for 24 hours at 37° C. shaking at 350 rpm.” left out
The plate was further incubated for 24 hours at 37° C. with shaking (350 rpm). Media was carefully aspirated and the biofilm was measured by optical density at 600 nm.

[3] = system: S. aureus (MRSA) biofilms; experiment: in vitro biofilm disruption assay, bacterial; assay type: cell-based; conditions: Staphylococcus aureus, 24 h, disruption, S. aureus, 1% amino acid; for inhibition at 1 %: p<0.001, read-out: Reduce B Biofilm
Description: as §1, §2, §3
(§6) Bacterial strains were streaked on Blood Agar plates (5% sheep blood in Tryptic Soy Agar) and incubated at 37° C. for 24 hours. A single colony from each strain to be tested was inoculated in a TSB broth and grown for 12 hours, at 37° C. shaking at 225 rpm. For the bacterial biofilm inhibition assays, 1 μL of saturated overnight cell culture was added to either 80 μL of TSB-G, or TSB-G supplemented with the amino acid compound solution to be tested, in a 384-well plate. The cells were allowed to adhere to the plate for 60 minutes at 37° C. without shaking. The media was carefully aspirated and 80 μL of TSB-G, or TSB-G supplemented with the amino acid compound solution was added to the plate. The plate was further incubated for 24 hours at 37° C. without shaking. Media was carefully aspirated and the biofilm was measured by optical density at 600 nm. Eight or twelve replicates were performed for each tested condition and the reported values are normalized to the control (TSB-G media only). For the bacterial biofilm disruption assays, 80 μL of TSB-G was added to the plate, along with 1 μL of overnight cell culture. The cells were allowed to adhere to the plate for 60 minutes at 37° C. with no shaking. The media was carefully aspirated and 80 μL of TSB-G was added to the plate. The plate was further incubated for 24 hours at 37° C. with no shaking. Media was carefully aspirated from the mature biofilm and 80 μL of TSB-G, or TSB-G supplemented with the amino acid to be tested, was gently added to the plate. The plate was further incubated for 24 hours at 37° C. without shaking. Media was aspirated and the biofilm was measured by optical density at 600 nm. Twelve replicates were performed for each tested condition and the reported values are normalized to the control (TSB-G media only).
For disruption assay, 80 μl of TSB-G was added to the plate, along with 1 μl of overnight cell culture. The cells were allowed to adhere to the plate for 60 minutes at 37° C. with no shaking. The media was carefully aspirated and 80 μl of TSB-G was added to the plate. The plate was further incubated for 24 hours at 37° C. with no shaking. Media was carefully aspirated from the mature biofilm and 80 μl of TSB-G, or TSB-G supplemented with the amino acid to be tested, was added drop wise to the plate. The plate was further incubated for 24 hours at 37° C. with no shaking. […]

[4] = system: fungal biofilms (C. albicans); experiment: biofilm assays (sustained inhibition and/or disruption), fungal; assay type: cell-based, Candida albicans; conditions: for effect on fungal biofilm growth / anti-biofilm properties against fungal biofilms: in at least one of the two biofilm assays; for anti-biofilm properties against fungal biofilms: administered individually
Description: Other amino acids in the blood of animals could combat bacterial and fungal biofilm and therefore may be useful in treating these bacterial and fungal infections that would lie on the external surfaces of infected animals such as humans and could also be used to combat these pathogens on instruments and surfaces that need to be treated. Two types of biofilm assays were performed: a sustained inhibition assay and a disruption assay. The sustained inhibition assay assessed the compound's ability to prevent biofilm development throughout all stages of biofilm formation, while the disruption assay assessed the compound's ability to break up an existing mature biofilm. For fungal biofilm assays, all solutions were prepared in RPMI 1640 medium. All bacterial biofilm solutions were prepared in Tryptic Soy Broth (TSB), supplemented with 1% glucose (henceforth referred to as TSB-G). All subsequent procedures were performed in a manner that maintained sterility. […] Amino acids were also tested in combinations. Compound solutions were homogenized with gentle agitation in the dark (4° C., 24 hours) before use. Fungal strains were streaked on Yeast Peptone Dextrose (YPD) agar plates and incubated at 30° C. for 48 hours. A single colony from each strain to be tested was inoculated into YPD broth and grown for 12 hours, at 30° C., shaking at 225 rpm. For the fungal biofilm inhibition assay, 1 μl of saturated overnight cell culture was added to either 80 μL of RPMI-1640 or RPMI-1640 supplemented with the amino acid compound solution to be tested, in a 384-well plate. The cells were allowed to adhere to the plate for 90 minutes at 37° C. shaking at 350 rpm. Loosely bound cells were washed once with phosphate buffered saline (PBS) and 80 μl of RPMI-1640, or RPMI-1640 supplemented with the amino acid compound solution was added to the plate. The plate was further incubated for 24 hours at 37° C. shaking at 350 rpm. Media was carefully aspirated and the biofilm was measured by optical density at 600 nm. Twelve replicates were performed for each tested condition and the reported values are normalized to the control (RPMI-1640 media only). For the fungal biofilm disruption assays, 80 μL of RPMI-1640 was added to the plate, along with 1 μL of overnight cell culture. The cells were allowed to adhere to the plate for 90 minutes at 37° C. shaking at 350 rpm. Loosely bound cells were washed once with PBS and 80 μL of RPMI-1640 was added to the plate. The plate was further incubated for 24 hours at 37° C. shaking at 350 rpm. Media was carefully aspirated from the mature biofilm and 80 μL of RPMI-1640, or RPMI-1640 supplemented with the amino acid compound solution to be tested, was gently added to the plate. The plate was further incubated for 24 hours at 37° C. shaking at 350 rpm. Media was carefully aspirated and the biofilm was measured by optical density at 600 nm. Twelve replicates were performed for each tested condition and the reported values are normalized to the control (RPMI-1640 media only).

[5] = system: C. albicans biofilms; experiment: in vitro biofilm disruption assay, fungal; assay type: cell-based, Candida albicans; conditions: 1% amino acid, p<0.001
Description: as §5, §3
as §4, with “The cells were allowed to adhere to the plate for 90 minutes at 37° C. shaking at 350 rpm. Loosely bound cells were washed once with phosphate buffered saline (PBS) and 80 μl of RPMI-1640, or RPMI-1640 supplemented with the amino acid compound solution was added to the plate. The plate was further incubated for 24 hours at 37° C. shaking at 350 rpm.” left out, “The cells were allowed to adhere to the plate for 90 minutes at 37° C. shaking at 350 rpm.” left out, “The plate was further incubated for 24 hours at 37° C. shaking at 350 rpm.” left out
The cells were allowed to adhere to the plate for 90 minutes at 37° C. with shaking (350 rpm). […] The plate was further incubated for 24 hours at 37° C. with shaking (350 rpm). […] The plate was further incubated for 24 hours at 37° C. with shaking (350 rpm). Media was carefully aspirated and the biofilm was measured by optical density at 600 nm.

[6] = system: bacterial biofilms (MRSA); experiment: biofilm assays (sustained inhibition and/or disruption), bacterial; assay type: cell-based, Staphylococcus aureus; conditions: in at least one of the two biofilm assays
Description: as §2, §3, §6

Structure (SMILES): Cn1cnc(C[C@H](N)C(=O)O)c1 [1-Methylhistidine, 1-methyl-L-histidine]
- effect on bacterial or fungal biofilms [1]: neutral

Structure (SMILES): CCC(N)C(=O)O (centres unmarked) [2 Aminobutyric Acid, 2-aminobutyric acid]
- effect on bacterial or fungal biofilms [1]: neutral

Structure (SMILES): Cn1cncc1C[C@H](N)C(=O)O [3-Methylhistidine, 3-methyl-L-histidine]
- Promote F Biofilm [2]: ● (a single dot [i.e. ●] signifies minor effect (from about 10 to about 30% change))
- inhibition at 1 % [3]: 10 to 30%
- effect on fungal biofilm growth [4]: support (improve) fungal biofilm growth

Structure (SMILES): NCCO [Ethanolamine, ethanolamine]
- Reduce F Biofilm [2]: ● (a single dot [i.e. ●] signifies minor effect (from about 10 to about 30% change))
- anti-biofilm properties against fungal biofilms [4]: reduction by less than two-fold

Structure (SMILES): NC(=O)CC[C@H](N)C(=O)O [Glutamine, L-glutamine]
- effect on bacterial or fungal biofilms [1]: neutral

Structure (SMILES): N[C@@H](Cc1c[nH]cn1)C(=O)O [Histidine, L-histidine]
- effect on bacterial or fungal biofilms [1]: neutral

Structure (SMILES): N[C@@H](CCS)C(=O)O [Homocysteine, L-homocysteine]
- effect on C. albicans biofilms in inhibition and disruption assays ([4]; Tables 4 and 5): both inhibited and disrupted
- anti-biofilm properties against fungal biofilms [4]: reduction by less than two-fold

Structure (SMILES): N[C@@H](COP(=O)(O)O)C(=O)O [Phosphoserine, O-phospho-L-serine]
- Reduce F Biofilm [5]: ● (a single dot [i.e. ●] signifies minor effect (from about 10 to about 30% change))
- inhibition at 1 % [3]: 10 to 30%
- anti-biofilm properties against fungal biofilms [4]: reduction by less than two-fold

Structure (SMILES): O=C(O)[C@@H]1CCCN1 [Proline, L-proline]
- Reduce F Biofilm [5]: ● (a single dot [i.e. ●] signifies minor effect (from about 10 to about 30% change))
- activation at 1 % ([3]; p<0.001, read-out: Promote B Biofilm): 10 to 30%
- anti-biofilm properties against fungal biofilms [4]: reduction by less than two-fold
- effect on bacterial biofilm growth [6]: support (improve) bacterial biofilm growth

Structure (SMILES): N[C@@H](Cc1c[nH]c2ccccc12)C(=O)O [Tryptophan, L-tryptophan]
- effect on bacterial or fungal biofilms [1]: neutral

Structure (SMILES): N[C@@H](Cc1ccc(O)cc1)C(=O)O [Tyrosine, L-tyrosine]
- effect on bacterial or fungal biofilms [1]: neutral

Structure (SMILES): CC(C)[C@H](N)C(=O)O [Valine, L-valine]
- Promote F Biofilm [2]: ● (a single dot [i.e. ●] signifies minor effect (from about 10 to about 30% change))
- inhibition at 1 % [3]: 10 to 30%
- effect on fungal biofilm growth [4]: support (improve) fungal biofilm growth
